# Reference: US8293715B2, “10a-Azalide compound crosslinked at 10a- and 12-positions” (Taisho Pharmaceutical Co., Ltd., priority 2007, dated 2012)
# Experiments:
# Type in all cases: cell-based
# [1] = test system: S. pneumoniae ATCC 700904; assay: In vitro antibacterial activity, MIC by microbroth dilution method (CLSI method), test bacteria symbol C; settings: Streptococcus pneumoniae, ATCC700904, read-out: MIC (minimum inhibitory concentration), test bacteria C
# Procedure: (§1) In vitro antibacterial activities of the compounds of the present invention against various test bacteria were measured according to the microbroth dilution method (CLSI method). As Comparative agent 1, clarithromycin was used, and the results for typical exemplary compounds are shown as MIC values (minimum inhibitory concentration, μg/ml) in Table 19.
# H. influenzae ATCC 43095 = assay: In vitro antibacterial activity, MIC by microbroth dilution method (CLSI method), test bacteria symbol A; settings: Haemophilus influenzae, ATCC43095, read-out: MIC (minimum inhibitory concentration), test bacteria A
# Procedure: as §1
# S. pneumoniae ATCC 49619 = assay: In vitro antibacterial activity, MIC by microbroth dilution method (CLSI method), test bacteria symbol B; settings: Streptococcus pneumoniae, ATCC49619, read-out: MIC (minimum inhibitory concentration), test bacteria B
# Procedure: as §1
MIC [1] [µg/mL],MIC (H. influenzae ATCC 43095) [µg/mL],MIC (S. pneumoniae ATCC 49619) [µg/mL],SMILES
> 16,16,8,CO[C@@]1(C)C[C@@H](C)[C@H](O)[C@H](C)N2C[C@@H](COc3cccc(C(C)(C)C)c3)[C@H](C2)OC(=O)C(C)(Cl)C(=O)[C@H](C)[C@H]1O[C@@H]1O[C@H](C)C[C@H](N(C)C)[C@H]1O (stereo partly drawn) [Example522]
> 128,0.5,0.25,CO[C@]1(C)C[C@H](O[C@H]2[C@H](C)[C@@H](O[C@@H]3O[C@H](C)C[C@H](N(C)C)[C@H]3O)[C@@](C)(OC)C[C@@H](C)[C@H](O)[C@H](C)N3CCC[C@@H](C3)OC(=O)[C@@H]2C)O[C@@H](C)[C@@H]1O [Example525]
> 128,4,0.03,"CC[C@H]1OC(=O)[C@H](C)[C@@H](O[C@H]2C[C@@](C)(OC)[C@@H](O)[C@H](C)O2)[C@H](C)[C@@H](O[C@@H]2O[C@H](C)C[C@H](N(C)C)[C@H]2O)[C@](C)(OC)C[C@@H](C)C(=O)[C@H](C)[C@@H](O)[C@]1(C)O [Comparative agent 1, clarithromycin, reference compound]"
> 128,4,0.12,CO[C@]1(C)C[C@H](O[C@H]2[C@H](C)[C@@H](O[C@@H]3O[C@H](C)C[C@H](N(C)C)[C@H]3O)[C@@](C)(OC)C[C@@H](C)[C@H](O)[C@H](C)N3C[C@@H](COCc4ccccc4)[C@H](C3)OC(=O)[C@@H]2C)O[C@@H](C)[C@@H]1O [Example523]
